Measured values reported in patent US20080085939A1, “Use Of Sphingolipids For Prevention And Treatment Of Atherosclerosis” (priority 2004, published 2008).

Experiments:
Format in all cases: cell-based
[1] = system: LPS-induced TNFα release by macrophage U937 cells; test: Effect of sphingolipids on LPS-induced TNFα release by macrophage U937 cells; settings: differentiated U937 cells; 1 μg/ml or 10 μg/ml sphingolipid for 30 min, then LPS 1 μg/ml for 4 hours; FIG. 1
Experimental: Undifferentiated U937 cells were grown at 37° C. at 5% (v/v) CO2 and 100% relative humidity in medium consisting of RPMI 1640, and supplemented with 10% Fetal Calf Serum (FCS), 2 mM L-Glutamine, 50 μg/ml Gentamycin and 0.4% Fungizone. The cells were passaged every three days. Finally the cells were transferred to 96-wells microtiter plates. Differentiation was induced by addition of 10 ng/ml PMA (Phorbol 12-myristate 13-acetate). After 24 hours the medium was changed and refreshed every day and the differentiated macrophages were grown for another 3 days at 37° C. The above described differentiated U937 cells were treated for 30 min with 1 μg/ml or 10 μg/ml sphingolipid (1 mg/mL in ethanol). Then the cells were stimulated with LPS (1 μg/ml) for a period of 4 hours. The TNFα release was measured with the TNF-α cytoset™ from Biosource International, Camarillo, Calif., USA.

[2] = system: NFAT-mediated signal transduction pathway in Jurkat cells (T-cells); test: PMA/ionomycin-induced stimulation of Jurkat cells, NFAT-luciferase reporter; settings: 10 μg/mL sphingolipid; Jurkat pNFAT-luc; PMA 50 ng/ml and ionomycin 1 μg/ml, 6 hours; FIG. 2
Experimental: (§1) Jurkat cells (T-cells) stably transfected with pNFAT-luc (Clontech, BD Bioscience, Becton, Dickinson and Company, Franklin Lakes, N.J. USA) in which the hygromycin resistance gene was cloned were used. The cells produce the enzyme luciferase under control of the NFAT (nuclear Factor of Activated T cells) promoter. The NFAT-mediated pathways are stimulated in Jurkat cells by PMA and ionomycin. Cells were grown at 37° C. at 5% (v/v) CO2 and 100% relative humidity in medium consisting of RPMI 1640, 10 mM HEPES (N-[2-hydroxyethyl]piperazine-N′-[2-ethanesulfonic acid), 10% FCS, 2 mM L-Glutamine and 1 mM Sodium Pyruvate. The medium was changed every 3 days. Finally the cells were transferred to 96-wells plates.
A cell suspension of 5×10^5 cells/ml in medium without phenol red was transferred to 96 well microtiter plates (200 μL/well). In triplicate sphingolipids were added (1 or 10 μg/mL). After 30 min PMA (50 ng/ml) and ionomycin (1 μg/ml) was added and the cells were incubated during 6 hours. Then 60 μl cell suspension was mixed with 60 μl steady glo reagent (Promega). Luminescence was measured in a Wallac 1450 microbeta liquid scintillation counter.

Jurkat cells (T-cells) = test: Cell proliferation/viability of Jurkat cells, Alamar Blue test; settings: exposure to sphingolipids
Experimental: as §1
Because sphingolipids can be cytotoxic to cells, the viability of the cells after exposure to the sphingolipids was checked with the Alamar Blue™ (Biosource) test. Almar blue™ (20 μL) and sphingolipids were added simultaneously. The Fluorescence (excitation at 540 nm and emission at 570 nm) was measured in a Wallac 1420 Victor^2 multilabel counter (Perkin Elmer Wellesley, Mass., USA).

Structure (SMILES) | release of TNFα by LPS-stimulated macrophages [1] | PMA/ionomycin-induced activation of the NFAT-mediated signal transduction pathway (luciferase activity) [2] | cell viability of Jurkat cells (Alamar Blue fluorescence) (Jurkat cells (T-cells))
CCCCCCCCCCCCCC[C@@H](O)[C@@H](O)[C@@H](N)CO [phytosphingosine] | strongly reduced | completely suppressed | No differences
CCCCCCCCCCCCCCC[C@@H](O)[C@@H](N)CO [sphinganine] | strongly reduced | completely suppressed | No differences
CCCCCCCCCCCCC/C=C/[C@@H](O)[C@@H](N)CO [sphingosine] | strongly reduced | completely suppressed | No differences
